The source of these data is ChEMBL document CHEMBL1128845, “Novel trityl linked drug immunoconjugates for cancer therapy” (Bioorg Med Chem Lett, 1995).

Converted amounts (≈) assume the structure as drawn.

Test system in the first test: not listed separately
Description: Conjugation ratio (CR) indicating the number of moles of compound required per 1 mole of antibody (having Molar input ratio (MIR) = 8) was determined.
For the compound `COc1ccc(C(Nc2nc(N)nc3c2ncn3[C@@H]2O[C@H](CO)[C@@H](O)C2(F)F)(c2ccc(OC)cc2)c2ccc(C(N)=O)cc2)cc1`, the CR turned out to be 7.44. Regarding `Cc1ccc(C(Nc2nc(N)nc3c2ncn3[C@@H]2O[C@H](CO)[C@@H](O)C2(F)F)(c2ccccc2)c2ccc(C(N)=O)cc2)cc1` (stereo partly drawn), the CR was 5.2. Consider `NC(=O)c1ccc(C(Nc2nc(N)nc3c2ncn3[C@@H]2O[C@H](CO)[C@@H](O)C2(F)F)(c2ccccc2)c2ccccc2)cc1`, for which the CR is 4.44. Still for that read-out and setting: the value for `COc1ccc(C(Nc2nc(N)nc3c2ncn3[C@@H]2O[C@H](CO)[C@@H](O)C2(F)F)(c2ccc(OC)cc2)c2cccc(C(N)=O)c2)cc1` was 6.44; that for `COc1ccc(C(Nc2nc(N)nc3c2ncn3[C@@H]2O[C@H](CO)[C@@H](O)C2(F)F)(c2ccc(C)cc2)c2ccc(C(N)=O)cc2)cc1` (stereo partly drawn) was 7.49; that for `COc1ccc(C(Nc2nc(N)nc3c2ncn3[C@@H]2O[C@H](CO)[C@@H](O)C2(F)F)(c2ccccc2)c2ccc(C(N)=O)cc2)cc1` (stereo partly drawn) was 5.73.

A further test deals with LS174T. Briefly: Concentration required to inhibit the incorporation of [3H]leucine to 50 percent of control uptake in LS174T (CEA +ve) Human Colon Carcinoma cells. It counts as functional, cell-based.
Usually IC50 stands for the concentration needed to halve the response being measured. High values mean weaker potency in that assay, low ones greater potency in that assay. Compound `COc1ccc(C(Nc2nc(N)nc3c2ncn3[C@@H]2O[C@H](CO)[C@@H](O)C2(F)F)(c2ccc(OC)cc2)c2ccc(C(N)=O)cc2)cc1` showed an IC50 of 0.27 µg/mL (≈ 0.417 µM).

For `Cc1ccc(C(Nc2nc(N)nc3c2ncn3[C@@H]2O[C@H](CO)[C@@H](O)C2(F)F)(c2ccccc2)c2ccc(C(N)=O)cc2)cc1` (stereo partly drawn), the IC50 is 6.04 µg/mL (≈ 10 µM).

For the compound `NC(=O)c1ccc(C(Nc2nc(N)nc3c2ncn3[C@@H]2O[C@H](CO)[C@@H](O)C2(F)F)(c2ccccc2)c2ccccc2)cc1`, the IC50 was 10 µg/mL (≈ 17 µM). The same measure, in the same setting: the value for `Nc1nc(N)c2ncn([C@@H]3O[C@H](CO)[C@@H](O)C3(F)F)c2n1` was 0.26 µg/mL (≈ 0.86 µM); that for `COc1ccc(C(Nc2nc(N)nc3c2ncn3[C@@H]2O[C@H](CO)[C@@H](O)C2(F)F)(c2ccc(OC)cc2)c2cccc(C(N)=O)c2)cc1` was 0.352 µg/mL (≈ 0.544 µM); that for `COc1ccc(C(Nc2nc(N)nc3c2ncn3[C@@H]2O[C@H](CO)[C@@H](O)C2(F)F)(c2ccc(C)cc2)c2ccc(C(N)=O)cc2)cc1` (stereo partly drawn) was 2.71 µg/mL (≈ 4.29 µM). `COc1ccc(C(Nc2nc(N)nc3c2ncn3[C@@H]2O[C@H](CO)[C@@H](O)C2(F)F)(c2ccccc2)c2ccc(C(N)=O)cc2)cc1` (stereo partly drawn) showed an IC50 of 4.94 µg/mL (≈ 8 µM).
